Assay in all cases: minimal inhibitory concentration in Sabouraud medium
Holding throughout (format): cell-based

Experiment [1] deals with Penicillium digitatum CBS.31948. To be noted: Penicillium digitatum. The source says:
Penicillium digitatum CBS.31948
(§1) As a medium Saboroud medium was employed.

Experiment [2] has as its system Aspergillus niger CBS.12648. The settings on record: Aspergillus niger.
Excerpt: Aspergillus niger CBS.12648
as §1

The subject of experiment [3] is Saccharomyces cerevisiae OKI.1282. The settings on record: Saccharomyces cerevisiae.
Excerpt: Saccharomyces cerevisiae OKI.1282
as §1

A further experiment concerns Candida albicans CBS.562. To be noted: Candida albicans.
Excerpt: Candida albicans CBS.562 "2"
as §1

Experiment [4] relates to Trichophyton rubrum CBS.30338. To be noted: Trichophyton rubrum.
Excerpt: Trichophyton rubrum CBS.30338
as §1

The subject of experiment [5] is Sporotrichum schenkii CBS.34035. To be noted: Sporotrichum.
Excerpt: Sporotrichum schenkii CBS.34035
as §1

For experiment [6], the system named is Trichophyton mentagrophytes CBS.50148. To be noted: Trichophyton mentagrophytes, read-out: minimal inhibitory concentration.
Excerpt: Trichophyton mentagrophytes CBS.50148
as §1

Experiment [7] relates to Epidermophyton floccosum OKI/IV. To be noted: Epidermophyton floccosum, read-out: minimal inhibitory concentration.
Excerpt: Epidermophyton floccosum OKI/IV.
as §1

SMILES strings stand for the structures. ≈ marks a conversion by molar mass, not a printed value. Read-outs that look alike come from different tables or passages of the source.

Consider `CC(=O)c1ccc(N2C(=O)CC(S(=O)(=O)C3CCCCC3)C2=O)cc1` (stereo not shown) [1-(4-acetylphenyl)-3-cyclohexyl-sulfonyl-pyrrolidine-2,5-dione], for which the MIC stood at 75 µg/mL (≈ 206 µM) in experiment [1] (CBS.31948, 72 h, 72 hours); 100 µg/mL (≈ 275 µM) in experiment [1] (CBS.31948, 144 h, 144 hours); 150 µg/mL (≈ 413 µM) in experiment [1] (CBS.31948, 288 h, 288 hours); 75 µg/mL (≈ 206 µM) in experiment [2] (CBS.12648, 72 h, 72 hours); 150 µg/mL (≈ 413 µM) in experiment [2] (CBS.12648, 144 h, 144 hours); 150 µg/mL (≈ 413 µM) in experiment [2] (CBS.12648, 288 h, 288 hours). In addition, the MIC turned out to be 25 µg/mL (≈ 68.8 µM) in experiment [3] (OKI.1282, 24 h, 24 hours); 50 µg/mL (≈ 138 µM) in experiment [3] (OKI.1282, 48 h, 48 hours); 50 µg/mL (≈ 138 µM) in the experiment with Candida albicans CBS.562 (CBS.562, 24 h, 24 hours); 75 µg/mL (≈ 206 µM) in the experiment with Candida albicans CBS.562 (CBS.562, 48 h, 48 hours); 10 µg/mL (≈ 27.5 µM) in experiment [4] (CBS.30338, 72 h, 72 hours); 25 µg/mL (≈ 68.8 µM) in experiment [4] (CBS.30338, 144 h, 144 hours). The MIC was 50 µg/mL (≈ 138 µM) in experiment [4] (CBS.30338, 288 h, 288 hours); 5 µg/mL (≈ 13.8 µM) in experiment [5] (CBS.34035, 72 h, 72 hours); 25 µg/mL (≈ 68.8 µM) in experiment [5] (CBS.34035, 144 h, 144 hours); 25 µg/mL (≈ 68.8 µM) in experiment [5] (CBS.34035, 288 h, 288 hours); 10 µg/mL (≈ 27.5 µM) in experiment [6] (CBS.50148, 72 h, 72 hours); 25 µg/mL (≈ 68.8 µM) in experiment [6] (CBS.50148, 144 h, 144 hours). Further, the MIC came out at 25 µg/mL (≈ 68.8 µM) in experiment [6] (CBS.50148, 288 h, 288 hours); 25 µg/mL (≈ 68.8 µM) in experiment [7] (72 h); 50 µg/mL (≈ 138 µM) in experiment [7] (144 h); 75 µg/mL (≈ 206 µM) in experiment [7] (288 h).
Consider `O=C1CC(S(=O)(=O)C2CCCCC2)C(=O)N1c1ccccc1[N+](=O)[O-]` (stereo not shown) [1-(o-nitrophenyl)-3-cyclohexyl-sulfonyl-pyrrolidine-2,5-dione], for which the MIC is 25 µg/mL (≈ 68.2 µM) in experiment [1] (CBS.31948, 72 h, 72 hours); 50 µg/mL (≈ 136 µM) in experiment [1] (CBS.31948, 144 h, 144 hours); 50 µg/mL (≈ 136 µM) in experiment [1] (CBS.31948, 288 h, 288 hours); 150 µg/mL (≈ 409 µM) in experiment [2] (CBS.12648, 72 h, 72 hours); 200 µg/mL (≈ 546 µM) in experiment [2] (CBS.12648, 144 h, 144 hours); 200 µg/mL (≈ 546 µM) in experiment [2] (CBS.12648, 288 h, 288 hours). For the same molecule, the MIC came to 100 µg/mL (≈ 273 µM) in experiment [3] (OKI.1282, 24 h, 24 hours); 200 µg/mL (≈ 546 µM) in experiment [3] (OKI.1282, 48 h, 48 hours); 75 µg/mL (≈ 205 µM) against Candida albicans CBS.562 (CBS.562, 24 h, 24 hours); 150 µg/mL (≈ 409 µM) against Candida albicans CBS.562 (CBS.562, 48 h, 48 hours); 50 µg/mL (≈ 136 µM) in experiment [4] (CBS.30338, 72 h, 72 hours); 50 µg/mL (≈ 136 µM) in experiment [4] (CBS.30338, 144 h, 144 hours). Moreover, the MIC in experiment [4] (CBS.30338, 288 h, 288 hours) came to 75 µg/mL (≈ 205 µM); in experiment [5] (CBS.34035, 72 h, 72 hours), 10 µg/mL (≈ 27.3 µM); in experiment [5] (CBS.34035, 144 h, 144 hours) it was 50 µg/mL (≈ 136 µM); in experiment [5] (CBS.34035, 288 h, 288 hours), 50 µg/mL (≈ 136 µM); in experiment [6] (CBS.50148, 72 h, 72 hours), 75 µg/mL (≈ 205 µM); in experiment [6] (CBS.50148, 144 h, 144 hours), 150 µg/mL (≈ 409 µM). In addition, the MIC in experiment [6] (CBS.50148, 288 h, 288 hours) turned out to be 150 µg/mL (≈ 409 µM); in experiment [7] (72 h) it was 75 µg/mL (≈ 205 µM); in experiment [7] (144 h), 100 µg/mL (≈ 273 µM); in experiment [7] (288 h) it was 150 µg/mL (≈ 409 µM).
Turning to `O=C1CC(S(=O)(=O)C2CCCCC2)C(=O)N1c1cccc(Cl)c1` (stereo not shown) [1-(m-chlorphenyl)-3-cyclohexylsulfonyl-pyrrolidine-2,5-dione], the MIC in experiment [1] (CBS.31948, 72 h, 72 hours) was determined as 10 µg/mL (≈ 28.1 µM); in experiment [1] (CBS.31948, 144 h, 144 hours), 50 µg/mL (≈ 141 µM); in experiment [1] (CBS.31948, 288 h, 288 hours), 50 µg/mL (≈ 141 µM); in experiment [2] (CBS.12648, 72 h, 72 hours) it was 50 µg/mL (≈ 141 µM); in experiment [2] (CBS.12648, 144 h, 144 hours), 100 µg/mL (≈ 281 µM); in experiment [2] (CBS.12648, 288 h, 288 hours), 100 µg/mL (≈ 281 µM). Moreover, the MIC in experiment [3] (OKI.1282, 24 h, 24 hours) amounted to 10 µg/mL (≈ 28.1 µM); in experiment [3] (OKI.1282, 48 h, 48 hours) it was 25 µg/mL (≈ 70.3 µM); in the experiment with Candida albicans CBS.562 (CBS.562, 24 h, 24 hours), 25 µg/mL (≈ 70.3 µM); with Candida albicans CBS.562 (CBS.562, 48 h, 48 hours) it was 75 µg/mL (≈ 211 µM); in experiment [4] (CBS.30338, 72 h, 72 hours) it was 2.5 µg/mL (≈ 7.03 µM); in experiment [4] (CBS.30338, 144 h, 144 hours) it was 2.5 µg/mL (≈ 7.03 µM). Also, the MIC in experiment [4] (CBS.30338, 288 h, 288 hours) worked out at 2.5 µg/mL (≈ 7.03 µM); in experiment [5] (CBS.34035, 72 h, 72 hours), 10 µg/mL (≈ 28.1 µM); in experiment [5] (CBS.34035, 144 h, 144 hours) it was 25 µg/mL (≈ 70.3 µM); in experiment [5] (CBS.34035, 288 h, 288 hours), 25 µg/mL (≈ 70.3 µM); in experiment [6] (CBS.50148, 72 h, 72 hours) it was 2.5 µg/mL (≈ 7.03 µM); in experiment [6] (CBS.50148, 144 h, 144 hours) it was 2.5 µg/mL (≈ 7.03 µM). Also, the MIC in experiment [6] (CBS.50148, 288 h, 288 hours) stood at 2.5 µg/mL (≈ 7.03 µM); in experiment [7] (72 h) it was 2.5 µg/mL (≈ 7.03 µM); in experiment [7] (144 h), 5 µg/mL (≈ 14.1 µM); in experiment [7] (288 h) it was 10 µg/mL (≈ 28.1 µM).
For the molecule `O=C1CC(S(=O)(=O)C2CCCCC2)C(=O)N1c1cccc([N+](=O)[O-])c1` (stereo not shown) [1-(3-nitrophenyl)-3-cyclohexyl-sulfonyl-pyrrolidine-2,5-dione], the MIC in experiment [1] (CBS.31948, 72 h, 72 hours) amounted to 25 µg/mL (≈ 68.2 µM); in experiment [1] (CBS.31948, 144 h, 144 hours), 50 µg/mL (≈ 136 µM); in experiment [1] (CBS.31948, 288 h, 288 hours), 50 µg/mL (≈ 136 µM); in experiment [2] (CBS.12648, 72 h, 72 hours), 75 µg/mL (≈ 205 µM); in experiment [2] (CBS.12648, 144 h, 144 hours), 150 µg/mL (≈ 409 µM); in experiment [2] (CBS.12648, 288 h, 288 hours), 150 µg/mL (≈ 409 µM). Also, the MIC in experiment [3] (OKI.1282, 24 h, 24 hours) was 75 µg/mL (≈ 205 µM); in experiment [3] (OKI.1282, 48 h, 48 hours), 75 µg/mL (≈ 205 µM); in the experiment on Candida albicans CBS.562 (CBS.562, 24 h, 24 hours) it was 50 µg/mL (≈ 136 µM); with Candida albicans CBS.562 (CBS.562, 48 h, 48 hours), 100 µg/mL (≈ 273 µM); in experiment [4] (CBS.30338, 72 h, 72 hours), 5 µg/mL (≈ 13.6 µM); in experiment [4] (CBS.30338, 144 h, 144 hours), 5 µg/mL (≈ 13.6 µM). Also, the MIC amounted to 5 µg/mL (≈ 13.6 µM) in experiment [4] (CBS.30338, 288 h, 288 hours); 25 µg/mL (≈ 68.2 µM) in experiment [5] (CBS.34035, 72 h, 72 hours); 75 µg/mL (≈ 205 µM) in experiment [5] (CBS.34035, 144 h, 144 hours); 75 µg/mL (≈ 205 µM) in experiment [5] (CBS.34035, 288 h, 288 hours); 2.5 µg/mL (≈ 6.82 µM) in experiment [6] (CBS.50148, 72 h, 72 hours); 5 µg/mL (≈ 13.6 µM) in experiment [6] (CBS.50148, 144 h, 144 hours). The MIC in experiment [6] (CBS.50148, 288 h, 288 hours) came out at 25 µg/mL (≈ 68.2 µM); in experiment [7] (72 h) it was 5 µg/mL (≈ 13.6 µM); in experiment [7] (144 h), 10 µg/mL (≈ 27.3 µM); in experiment [7] (288 h), 10 µg/mL (≈ 27.3 µM).
